# Reference: patent publication US10391100B2, “Combination of aurora kinase inhibitors and anti-CD20 antibodies” (Millennium Pharmaceuticals, Inc., priority 2008, dated 2019)
# Marks after values point to notes of the source that are not given here.
# Experiments:
# Assay type in all cases: in vivo, human (in female SCID mice)
# [1] = tested on: WSU-DLBCL2-Luc disseminated lymphoma; assay: Disseminated WSU-DLBCL2-Luc lymphoma model, second study (BID dosing); settings: for Median Survival / Maximum Percent Body Weight Change (%) / TGI Mean (%): 2nd study; for TGI Mean (%): Day 22; for number of mice remaining at the end of the study: Day 130; for Pct Decrease in AUC Relative to Mean Vehicle AUC: second study, PO, BID, log10 photon flux vs day AUC, Days 0 through 21
# Description: (§1) The Ly19-Luc, WSU-DLBCL2-Luc and PHTX-22-06 models described in these studies are human DLBCL cell lines, transfected with luciferase. These models were grown in immununocomprimised mice subcutaneously on the flank, or disseminated throughout the body by tail vain injection.
# (§2) Two separate studies were conducted in the WSU-DLBCL2-luc model.
# [2] = tested on: primary diffuse large B-cell lymphoma PHTX-22-06; assay: Sub-cutaneous primary diffuse large B-cell lymphoma model PHTX-22-06, tumor volume (Example 3); settings: Compound III-1 20 mg/kg, PO, bid; Days 0 through 27
# Description: Tumor growth was monitored with vernier calipers. The mean tumor volume was calculated using the formula V═W^2×L/2.
# The animals were inoculated with 2×5 mm^3 tumor mass from primary […] tumor chunk at implant site Flank (trocar).
# (§3) The statistical methodology used in these experiments was the same as that described in Example 1 above.
# [3] = tested on: Ly19 lymphoma (cell line Ly-19); assay: Sub-cutaneous Ly19 lymphoma model, tumor volume (Example 1); settings: for Pct Decrease in AUC Relative to Mean Vehicle AUC: Days 0 through 21; for Change in Slope: log tumor volume, slope (day 21 to 62) − slope (day 13 to 21)
# Description: (§4) Tumor growth was monitored with vernier calipers. The mean tumor volume was calculated using the formula V=W^2×L/2.
# P-values <0.05 were considered significant.
# [4] = tested on: WSU-DLBCL2-Luc disseminated lymphoma; assay: Disseminated WSU-DLBCL2-Luc lymphoma model, first study (QD dosing); settings: for Median Survival / Maximum Percent Body Weight Change (%) / TGI Mean (%): 1st study; for Maximum Percent Body Weight Change (%) / TGI Mean (%): Day 21; for Pct Decrease in AUC Relative to Mean Vehicle AUC: first study, PO, QD, log10 photon flux vs day AUC, Days 0 through 21
# Description: as §1, §2
# [5] = tested on: Ly19-Luc disseminated lymphoma; assay: Disseminated Ly19-Luc lymphoma model, Experiment #1 (Example 4); settings: for Maximum Percent Body Weight Change / TGI Mean / BW change (maximum body-weight change): Day 24; for TGI: calculated on Day 24; for number of mice remaining by the end of the study: Day 132
# Description: (§5) The in vivo experiments using the disseminated Ly19-Luc lymphoma model were performed in duplicate. […] Tumor volumes were estimated once weekly throughout the inoculation and treatment period using the Xenogen IVIS® imaging system (Xenogen Corporation, Alameda, Calif.). To image the mice, an intraperitoneal (IP) injection of […] (15 mg/ml), was administered 10 minutes prior to procedure and mice were anesthetized with 2% isofluorane 2-5 minutes throughout the scanning procedure. For Xenogen imaging, each mouse was imaged on dorsal and ventral views. The sum of 2 photon flux measurements was used for the analysis.
# The antitumor effects of each treatment group were determined by calculating the percent TGI ([Δ control mean tumor volume−Δ treated mean tumor volume]×100/Δ control mean tumor volume) at the end of treatment. Mice were weighed once weekly for the duration of the study and the maximal percent body weight change was determined during the treatment period. […] Animals were removed from the study when they reached humane endpoints (>20%, body weight loss or paralysis of either both front or hind limbs), the medial survival for each group was determined and the survival rate of treatment groups were compared to control. Treatment groups were evaluated to determine if the effects of combination treatment were synergistic, additive or sub-additive relative to control.
# (§6) The photon flux data was log10 transformed, and these values over the treatment period were compared across treatment groups to assess if the differences in the trends over time were statistically significant. A mixed-effects linear regression model using a restricted maximum likelihood was fit to the data. An ANOVA test was performed to determine if there was a statistically significant difference between the treatment groups and control.
# (§7) Log10-transformed fold change photon flux values (tumor burden) from baseline were also used to calculate AUC values for each animal. The AUC values from the mice in a given treatment group were then averaged together to generate mean AUC values and associated standard errors.
# (§8) A synergy score calculation was used to address the question of whether the effects of the combination treatment were synergistic, additive, or sub-additive relative to the individual treatments.
# (§9) To compare the tumor regrowth rates after stopping treatment, mixed-effects piecewise linear regression models were built separately for each treatment group with mice monitored beyond treatment period. All P-values <0.05 were called significant in this report.
# (§10) The survival rates of the animals in each treatment group were plotted using Kaplan-Meier curves and the log rank test was used to compare survival rates among pairs of treatment groups.
# [6] = tested on: Ly19-Luc disseminated lymphoma; assay: Disseminated Ly19-Luc lymphoma model, Experiment #2 (Example 4)
# Description: as §5
# The antitumor effects of each treatment group were determined by calculating the percent TGI ([Δ control mean tumor volume−Δ treated mean tumor volume]×100/Δ control mean tumor volume) at the end of treatment. Mice were weighed once weekly for the duration of the study and the maximal percent body weight change was determined during the treatment period. Animals were monitored for survival up to 132 days following treatment. Animals were removed from the study when they reached humane endpoints (>20%, body weight loss or paralysis of either both front or hind limbs), the medial survival for each group was determined and the survival rate of treatment groups were compared to control. Treatment groups were evaluated to determine if the effects of combination treatment were synergistic, additive or sub-additive relative to control.
# as §6, §7, §8, §9, §10
# Mice were dosed according to the following treatment groups:
# Mice were weighed and tumor volumes were estimated with Xenogen signal (average photon flux) calculation once a week throughout the inoculation and the treatment period and after the treatment until the end of study.
# Treatment started 7 days following the inoculation of tumor cells into the tail vein, with an average photon flux measurement of 1×10^7 on treatment Day 0.
# [7] = tested on: WSU-Luc lymphoma (cell line WSU-DLCL2); assay: Subcutaneous WSU-Luc lymphoma model, tumor volume (Example 2); settings: Compound III-1 3 mg/kg, PO, qd; Days 0 through 20
# Description: as §4, §3
# [8] = Compound III-1 10 mg/kg po/BID × 21 days
# [9] = Compound III-1 20 mg/kg po/QD × 21 days (dose holiday Day 9 to Day 13)
# [10] = Compound III-1 3 mg/kg po/QD × 21 days
# [11] = Compound III-1 10 mg/kg po/QD × 21 days
# [12] = Compound III-1 3 mg/kg Po/QD × 21 days
# [13] = Compound III-1 10 mg/kg Po/QD × 21 days
# [14] = Compound III-1 3 mg/kg PO QD × 3 wks, Day 23
smiles,measurement,setting,value
"COc1cc(Nc2ncc3c(n2)-c2ccc(Cl)cc2C(c2c(F)cccc2OC)=NC3)ccc1C(=O)O [Compound III-1, 4-{[9-chloro-7-(2-fluoro-6-methoxyphenyl)-5H-pyrimido[5,4-d][2]benzazepin-2-yl]amino}-2-methoxybenzoic acid]",Median Survival,[1]; [8],70 days
same,Maximum Percent Body Weight Change (%),"[1]; Compound III-1 10 mg/kg po/BID × 21 days, Day 19","−3.9, Day 19%"
same,TGI Mean (%),[1]; [8],"99.7, Day 22%"
same,Median Survival,[1]; [9],111.5 days
same,Maximum Percent Body Weight Change (%),"[1]; Compound III-1 20 mg/kg po/QD × 21 days (dose holiday Day 9 to Day 13), Day 9","−8.9, Day 9%"
same,TGI Mean (%),[1]; [9],"99.7, Day 22%"
same,TGI,[1]; Compound III-1 alone 10 mg/kg BID,99.7%
same,TGI,[1]; Compound III-1 alone 20 mg/kg BID,99.7%
same,mean maximum body weight loss,"[1]; Compound III-1 at 20 mg/kg BID, Day 9",8.9%
same,number of mice remaining at the end of the study,[1]; 10 mg/kg single agent Compound III-1,1 out of 10
same,number of mice remaining at the end of the study,[1]; 20 mg/kg Compound III-1 single agent,5 out of 10
same,Pct Decrease in AUC Relative to Mean Vehicle AUC,[1]; Compound III-1 10 mg/kg,94.0%
same,Pct Decrease in AUC Relative to Mean Vehicle AUC,[1]; Compound III-1 20 mg/kg,96.6%
same,Pct Decrease in AUC Relative to Mean Vehicle AUC,[2],79.3 Pct
same,Pct Decrease in AUC Relative to Mean Vehicle AUC,[3]; Compound III-1 3 mg/kg qd,22.9 Pct
same,Pct Decrease in AUC Relative to Mean Vehicle AUC,[3]; Compound III-1 10 mg/kg bid,105.6 Pct
same,Pct Decrease in AUC Relative to Mean Vehicle AUC,[3]; Compound III-1 10 mg/kg qd,79.3 Pct
same,Change in Slope,[3]; Compound III-1 10 mg/kg bid,0.018
same,Change in Slope,[3]; Compound III-1 10 mg/kg qd,0.040
same,Median Survival,[4]; [10],46.5 days
same,Maximum Percent Body Weight Change (%),[4]; [10],"−3.1, Day 21%"
same,TGI Mean (%),[4]; [10],"50.9, Day 21%"
same,Median Survival,[4]; [11],44 days
same,Maximum Percent Body Weight Change (%),[4]; [11],"−4.5, Day 21%"
same,TGI Mean (%),[4]; [11],"88.2, Day 21%"
same,TGI,[4]; Compound III-1 alone 3 mg/kg QD,50.9%
same,TGI,[4]; Compound III-1 alone 10 mg/kg QD,88.2%
same,Pct Decrease in AUC Relative to Mean Vehicle AUC,[4]; Compound III-1 3 mg/kg,21.1%
same,Pct Decrease in AUC Relative to Mean Vehicle AUC,[4]; Compound III-1 10 mg/kg,42.0%
same,Median Survival,[5]; [12],40 days
same,Maximum Percent Body Weight Change,[5]; [12],"+6.2, Day 24%"
same,TGI Mean,[5]; [12],"89.6, %"
same,Median Survival (Days),[5]; [10],"40, p < 0.01^c Days"
same,BW change (maximum body-weight change),[5]; [10],"+6.2, Day 24%"
same,TGI,[5]; [10],"89.6, p < 0.001%"
same,Median Survival,[5]; [13],63.5 days
same,Maximum Percent Body Weight Change,[5]; [13],"+3.3, Day 24%"
same,TGI Mean,[5]; [13],"100, %"
same,Median Survival (Days),[5]; [11],"63.5, p < 0.01 Days"
same,BW change (maximum body-weight change),[5]; [11],"+3.3%, Day 24"
same,TGI,[5]; [11],"100, p < 0.001%"
same,tolerability,[5]; Compound III-1 at 3 or 10 mg/kg on a QD schedule,well tolerated
same,number of mice remaining by the end of the study,[5]; single agent Compound III-1 3 mg/kg,1 out of 10
same,number of mice remaining by the end of the study,[5]; single agent Compound III-1 10 mg/kg,3 out of 10
same,Mean BW Day 0,"[6]; Compound III-1 3 mg/kg PO QD × 3 wks, Day 0 (baseline)",19.2 g
same,Maximum BW Change (%) Day 22,"[6]; Compound III-1 3 mg/kg PO QD × 3 wks, Day 22",+3.1%
same,Mean BW Day 22,"[6]; Compound III-1 3 mg/kg PO QD × 3 wks, Day 22, in g (unit assumed)",19.81
same,Mean Photon Flux (Day 23),[6]; [14],2.34E+08
same,TGI Day 23,[6]; [14],87.7%
same,tolerability,[6]; Compound III-1 at 3 mg/kg on a QD schedule,well tolerated
same,Mean AUC,"[6]; log10 fold change photon flux vs day, up to Day 23, Compound III-1 3 mg/kg QD",18.2
same,Pct Decrease in AUC Relative to Mean Vehicle AUC,[7],19.4 Pct
